Data published in patent publication US10907199B2, “Double-strand DNA break quantification method” (SOCIETE DE COMMERCIALISATION DES PRODUITS DE LA RECHERCHE …, priority 2017, dated 2021).

Target: T1, terminal deoxynucleotidyl transferase (TdT) (Bos taurus, UniProt P06526)
T1 construct: purchased Roche (Sigma-Aldrich Canada) 3333574001
Assay: TdT inhibition by ATP: tailing reaction of linearized pBlueScript plasmid with TdT and dATP, read by DNA size shift on agarose gel
Format: biochemical
Description: Linearized pBlueScript plasmid was used in a tailing reaction using TdT and dATP following manufacturer's instruction. Different concentrations of ATP were added in the reaction and the tailing efficiency was observed after agarose gel electrophoresis by a shift in the DNA size. It was sought to determine conditions for efficient repair of DNA nicks and gaps prior to the TdT end labeling. A proper combination of T4 DNA ligase and T4 DNA polymerase was used to seal nicks and fill the gaps respectively and termed «Nick and Gap Repair» (NGR). […] Limiting the purification steps is crucial to improve DNA recovery throughout the process. It was observed that TdT is inhibited by the high concentration of ATP recommended for DNA ligations (1 mM, FIG. 6). However, it was determined that efficient DNA nick sealing is still observed by decreasing the ATP concentration to 1 μM. […] From these simple modifications, both repair and labeling reactions can be performed without the need for DNA purification between these steps. It is worth noting that although the use of «Tap» DNA ligase would have the advantage of preventing DSB ligations, T4 DNA ligase was however strongly preferred because of its compatibility with the gap-filling step and its greater nick sealing activity (not shown). The efficiency of the repair step for the specific capture of DSBs within genomic DNA was established using HeLa-I-SceI DNA pre-digested with the nicking endonuclease Nt.BbvCI as this enzyme creates a single nick within a 7 nucleotide recognition sequence. A single Nt.BbvCI recognition sequence is present within the I-SceI insert and can be detected by DBrIC using a primer pair adjacent to the nick (FIG. 5C).

T1 sequence (P06526 139-509 limits assumed): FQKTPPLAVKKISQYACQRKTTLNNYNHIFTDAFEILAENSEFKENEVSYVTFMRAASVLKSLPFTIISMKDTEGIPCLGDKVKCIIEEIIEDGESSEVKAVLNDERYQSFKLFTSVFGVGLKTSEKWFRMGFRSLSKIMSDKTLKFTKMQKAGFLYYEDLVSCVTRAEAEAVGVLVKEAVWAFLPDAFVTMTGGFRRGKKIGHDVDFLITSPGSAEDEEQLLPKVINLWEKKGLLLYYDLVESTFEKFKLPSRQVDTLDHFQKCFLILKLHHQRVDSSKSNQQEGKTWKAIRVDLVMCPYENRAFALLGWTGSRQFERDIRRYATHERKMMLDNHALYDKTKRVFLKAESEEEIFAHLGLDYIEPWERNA

SMILES: Nc1ncnc2c1ncn2[C@@H]1O[C@H](COP(=O)(O)OP(=O)(O)OP(=O)(O)O)[C@@H](O)[C@H]1O [ATP, adenosine triphosphate]
- subsequent TdT reaction in presence of ATP (1 μM ATP): proceed normally
- enzymatic activity of the TdT in presence of ATP (10 μM ATP (usual concentration for DNA ligase and DNA polymerase), FIG. 6): inhibit
- TdT enzymatic activity (tailing efficiency) in presence of ATP (1 mM ATP (high concentration recommended for DNA ligations), FIG. 6): inhibited
